Test results taken from a melting point compilation (Tetko et al.; mined from patent text by program, amines drawn as free bases though some values may be those of a salt).

Point of comparison: Cc1nn(CC(F)F)c(-c2ccc(F)cc2)c1-c1ccc2c(c1)NC(=O)CO2, melting point 168 °C. Against it:
- C#CCN1CCN(CC(=O)N2c3ccccc3C(=O)Nc3cccnc32)CC1 — higher, 249 to 250 °C
- Oc1ccc(O)c2cc3ccccc3cc12 — not separable, 167 to 169 °C
- CN(C)C(=O)C1(c2cc(C#N)ccc2O)CCCC1 — lower, 144 to 146 °C
- CC(=O)NCCCC(=O)c1ccc(Cl)cc1CCC(=O)OCC(N)=O — lower, 114 to 116 °C
- CC1(C)CC(=O)C(C(=O)Nc2ccc(Cl)c(C(F)(F)F)c2)C(=O)C1 — lower, 128 to 131 °C
- CCN(C(=O)COc1nc(-c2ccc(N)cc2)nc(C)c1C)c1ccccc1 — higher, 183 to 185 °C
- CC(C)CN1CCC(CCC(=O)c2cc(Cl)c(N)[nH]c2=O)CC1 — higher, 175 °C
- CCOC(=O)c1c(O)c2cccnc2n(CC)c1=O — lower, 120 to 122 °C
- COc1ccsc1-c1nsc2ccc(N3C(=O)C4=C(CCCC4)C3=O)cc12 — lower, 146 to 149 °C
- CC(C)(C)NCC(O)COc1cccc2nsnc12 (stereo not drawn) — lower, 89 to 91 °C
- COC(=O)N=P(c1ccccc1)(c1ccccc1)c1ccccc1 — lower, 138 to 139 °C
- COc1ccc(-c2cc3cc(F)c(F)cc3[nH]2)cc1NCc1cccs1 — higher, 190 to 192 °C
- CC(C)(C)C(=O)Nc1cc(Cl)ccc1Cl — lower, 74 to 76 °C
- COC1(c2cc(F)cc(OCc3ccc(C(=O)O)cc3)c2)CCOCC1 — higher, 184 to 186 °C
- Cn1ccc(C(=O)c2ccccc2)c1 — lower, 90 to 93 °C
- CCCC12CCC3C4CCCC=C4CCC3C1CCC2O (stereo not drawn) — lower, 115 to 119 °C
- CCCCCCCCCCCCCCOc1ccc(CC(=O)O)cc1Cl — lower, 68 to 69 °C
- C[C@@H]1N=C(c2ccccc2Cl)c2ccsc2NC1=O — higher, 200 °C
- CC(=O)NC1Cc2ccc([N+](=O)[O-])cc2C1 (stereo not drawn) — lower, 143 to 144 °C
- CCOC(=O)Cc1nn(CC2Nc3cc(C(F)(F)F)ccc3S2)c(=O)c2ccccc12 (stereo not drawn) — lower, 134 °C
- Cc1ccccc1-c1cn2ccc3ccccc3c2n1 — lower, 93 °C
- O=C(c1ccccc1)c1ccc(NC(=O)N2CCC3(CC2)OC(=O)c2ccccc23)cc1 — lower, 161 to 163 °C
- O=C(Nc1ccc2[nH]c(CNCC3CCOCC3)cc2c1)c1ccc(OCC2CC2)cc1 — lower, 160 °C
- CC(=O)c1c(O)cccc1OCC(C)(O)Oc1ccc(Br)cc1 (stereo not drawn) — lower, 102 to 103 °C
- OC(CCc1ccccc1)Cn1ccnc1 (stereo not drawn) — lower, 106 to 107 °C
- COc1cc(C(C)C)c2c(c1)S(=O)(=O)N(COc1cc(C(F)(F)F)nn1-c1ncccn1)C2=O — lower, 133 to 134 °C
- Nc1ccc(Nc2c(NCc3ccccc3)cc(C(=O)O)cc2S(N)(=O)=O)cc1 — higher, 244 °C
- CCOC(=O)COc1cc(C)c(C)c2c1CCC2=O — lower, 100 to 101 °C
- CN1CCCC(c2cc3ccccc3c(=O)[nH]2)C1 (stereo not drawn) — lower, 155 to 156 °C
- N#Cc1ccsc1C1=CC(=O)Nc2cc(-c3ccc(F)cc3)ccc2N1 — higher, 239 to 240 °C
- CCCCC(=O)Nc1c(C(=O)OC)cc(C)cc1[N+](=O)[O-] — lower, 59 to 60 °C
- O=C(Cc1ccccn1)OC(=O)Cc1ccccn1 — lower, 105 to 106 °C
- COc1cccc(-c2nn(Cc3ccccc3)c3ncnc(Cl)c23)c1 — lower, 99 to 101 °C
- CCn1c(=O)c2[nH]c(/C=C/c3ccc(OC)c(C)c3OC)nc2n(CC)c1=O — higher, > 275 °C
- CON(C(=O)c1ccc(C(=O)C(C)(C)C)cc1)C(=O)c1ccc(C(=O)C(C)(C)C)cc1 — lower, 103 to 105 °C
- O=C(NC1CCN(CCNC(=O)c2n[nH]c3ccccc23)CC1)OCc1ccccc1 — higher, 184 to 187 °C
- CCN=C1SC2CCOc3ccc([N+](=O)[O-])cc3C2(O)N1CC (stereo not drawn) — lower, 125 to 127 °C
- CCNC(=S)NC1=Nc2ccccc2CS1 — higher, 191 to 196 °C
- O=C1NC(=S)SC1=Cc1ccc(COc2ccccc2CCc2ccccc2)cc1 — lower, 162 to 163 °C
- N=C(NO)c1ccc2nc(N[C@@H]3CCc4ccccc43)ccc2c1 — higher, 236 °C
- CCCCCCCCCCOc1ccc(-c2c(C)[nH]c(=O)n2C2CCCCC2)cc1 — lower, 137 to 138 °C
- CCCCOc1nc2cc(C)nn2c2c1cnc1c2cnn1CC — lower, 103 to 104 °C
- COC(=O)C1C(c2ccc(F)c(C)c2)=CC2(CC1(C)C)SCCCS2 (stereo not drawn) — lower, 100 to 101 °C
- CC(CNc1ccc(Cl)cc1)COc1ccc(C(=O)O)cc1 (stereo not drawn) — lower, 148 to 150 °C
- COc1cc(Nc2c(C#N)cnc3cc(C#CCCN4CCN(C)CC4)c(OC)cc23)c(Cl)cc1Cl — lower, 165 to 167 °C
- Nc1cc(=O)n(Cc2cccc(I)c2)[nH]1 — higher, 186 °C
- COc1ccc(C(=O)O)cc1NC(=O)C(CS)Cc1ccccc1 (stereo not drawn) — higher, 188 to 192 °C
- COc1cccc2[nH]c3c(c12)C(=O)N=NC3=O — higher, > 260 °C
- COc1cc2nc(C)[nH]c(=O)c2cc1OCCCN1CCOCC1 — higher, 236 to 238 °C
- NC1=C([C@H]2CC[C@H](c3ccc(Cl)cc3)CC2)C(=O)c2ccccc2C1=O — higher, 210 to 215 °C
- Nc1nnc(-c2ccc3occ(-c4ccc(OC(F)(F)F)cc4)c3c2)o1 — higher, 223 to 224 °C
- O=C(O)c1cnn(-c2ccc(F)cc2)c1 — higher, 244 to 247 °C
- CC(=O)OCCOC(=O)C1=C(C)NC(C)=C(C(=O)CS(=O)(=O)NC(C)C)C1c1cccc([N+](=O)[O-])c1 (stereo not drawn) — lower, 133 to 136 °C
- O=C(c1cc(Cl)nc(Cl)c1)n1ccnc1 — lower, 148 to 151 °C
- CCOC(=O)c1c(C(F)(F)F)oc2ccc(C(F)(F)F)cc2c1=O — lower, 116 to 120 °C
- N#Cc1cnn2c1NCC=C2c1ccc(Cl)c(Cl)c1 — higher, 254 to 256 °C
- Nc1cc(-n2cc(C(=O)O)c(=O)c3cc(F)c(F)c(Cl)c32)ncc1F — higher, 280 °C
- CCC(Oc1ccccc1Br)C(=O)OC1CC(O)C=C2C=CC(C)C(CCC3CC(O)CC(=O)O3)C21 (mixture of isomers) — lower, 160 to 162 °C
- COc1c(C)cc(C(=O)c2ccc(Cl)cc2)c(OC)c1OC — lower, 99.5 to 100 °C
- OC1CCC(Oc2ccc3[nH]ncc3c2)CC1 (stereo not drawn) — lower, 112 to 118 °C
- Cc1cc(SC(C)C)c(NC(=O)CCCSc2nc3ccccc3s2)c(SC(C)C)n1 — lower, 116 to 117 °C
- COc1cc2c(Nc3ccc(Cl)cc3F)ncnc2cc1OCCN1CCS(=O)(=O)CC1 — higher, 246 to 249 °C
- CC1=CC(C)=Nc2c(ccc3nc(O)c(O)nc23)N1 — higher, > 300 °C
- CC(=O)C1CCC2C3CCC4CC(=O)CCC4(C)C3C(OC(=O)CCl)CC12C (stereo not drawn) — lower, 133 to 135 °C
- CNCCOc1ccc(C2=C(c3ccccc3)CCCc3cc(OC4CCCCO4)ccc32)cc1 (stereo not drawn) — lower, 133 to 137 °C
- CCOC(=O)C(C)(C)Sc1ccc(NCCn2c(C)nc3ccccc3c2=O)cc1 — higher, 226 to 228 °C
- N#Cc1cc(Cn2cncn2)ccc1-c1ccc(OS(N)(=O)=O)cc1 — lower, 157 to 160 °C
- CCOc1ccc(-c2nc(CCC(=O)O)cs2)cc1OCC — lower, 111 to 114 °C
- CCCCSc1cc(C(=O)O)cc(S(N)(=O)=O)c1-c1ccccc1 — lower, 75 to 77 °C
- Cc1cc(C)c(C=C(C(=O)O)c2csc(N)n2)c(C)c1 — higher, > 200 °C
- CC(=O)C1CCC2C3CCC4CC(O)C(Cl)CC4(C)C3C(=O)CC12C (stereo not drawn) — higher, 185 to 189 °C
- CSCC[C@H](NC(=O)[C@@H]1CCC(=O)N1)C(=O)N[C@@H](C)C(=O)N[C@H](C(=O)N[C@@H](CCCCN)C(=O)O)C(C)C — higher, 238 to 242 °C
